Consider one compound from ChEMBL document CHEMBL5325426, “Structure-based discovery of potent USP28 inhibitors derived from Vismodegib” (Eur J Med Chem, 2023).

The target of the assay is T1, Ubiquitin carboxyl-terminal hydrolase 25 (Homo sapiens) (UniProt Q9UHP3).
T1 sequence (whole entry): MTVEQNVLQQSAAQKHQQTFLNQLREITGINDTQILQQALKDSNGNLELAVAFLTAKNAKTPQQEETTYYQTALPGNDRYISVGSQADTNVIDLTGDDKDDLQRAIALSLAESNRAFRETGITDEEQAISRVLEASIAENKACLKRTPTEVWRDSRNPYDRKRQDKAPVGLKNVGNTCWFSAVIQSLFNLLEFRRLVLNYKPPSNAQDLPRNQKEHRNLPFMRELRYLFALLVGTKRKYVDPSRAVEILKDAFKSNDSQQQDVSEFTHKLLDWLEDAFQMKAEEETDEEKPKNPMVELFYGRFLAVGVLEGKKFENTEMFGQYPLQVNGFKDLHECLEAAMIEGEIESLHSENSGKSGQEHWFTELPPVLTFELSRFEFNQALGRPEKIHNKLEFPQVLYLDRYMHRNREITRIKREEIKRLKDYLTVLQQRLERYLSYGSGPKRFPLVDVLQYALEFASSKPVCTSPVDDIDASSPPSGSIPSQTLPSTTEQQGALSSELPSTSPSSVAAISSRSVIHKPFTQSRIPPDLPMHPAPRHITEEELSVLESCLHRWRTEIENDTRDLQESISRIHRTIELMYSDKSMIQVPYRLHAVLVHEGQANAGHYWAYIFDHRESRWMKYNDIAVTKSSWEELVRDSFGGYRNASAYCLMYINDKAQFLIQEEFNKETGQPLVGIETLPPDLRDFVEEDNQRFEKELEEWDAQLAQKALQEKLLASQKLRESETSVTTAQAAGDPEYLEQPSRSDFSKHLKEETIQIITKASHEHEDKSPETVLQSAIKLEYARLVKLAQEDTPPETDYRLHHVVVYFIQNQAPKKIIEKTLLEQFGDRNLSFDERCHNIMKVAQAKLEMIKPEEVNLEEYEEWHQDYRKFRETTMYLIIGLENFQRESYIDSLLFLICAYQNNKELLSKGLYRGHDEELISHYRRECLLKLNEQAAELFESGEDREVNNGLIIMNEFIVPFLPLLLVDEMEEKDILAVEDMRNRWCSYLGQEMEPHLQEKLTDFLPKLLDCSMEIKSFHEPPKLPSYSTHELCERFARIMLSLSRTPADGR
Briefly: Inhibition of USP25 in human LS174T cells assessed as downregulation of Tankyrase 1/2 protein level. It is filed as cell-based.

The source made the active and inactive calls. The calls are words filed in the database; no cut-off is given here.

With `CS(=O)(=O)c1ccc(C(=O)Nc2ccc(Cl)c(-c3ccc4c(c3)CNC4)c2)c(Cl)c1`, the inhibition entry is “Active”.
